We go through 1 molecule from patent publication US20110105434A1, “2-AMINO PURINE DERIVATIVES AND THEIR USE AS ANTI-HERPETIC AGENTS” (priority 2007, published 2011).

Like-named read-outs stand apart in the source and are kept apart here.

Data set [1] concerns patient with reduced renal function. The experiment in a line: creatinine clearance (renal function) in a patient with autoimmune disease. The data set is classed as in vivo, human. An excerpt:
Patients with autoimmune disease often suffer significant inflammation of the kidneys, often causing renal dysfunction and/or destruction, which can lead to death in the absence of dialysis. A clinical laboratory measure of kidney function is creatinine clearance. Creatinine is the metabolic product formed from creatine when food is converted to energy. Creatinine is produced at a steady state and is affected very little by diet or normal physical activities. When a subject's kidneys are damaged and/or cannot function normally, the amount of creatinine excreted in the subject's urine decreases while its level in the blood increases. Thus, the blood level of creatinine indicates how well the kidneys are working. A high level generally means the kidneys are not functioning properly. A creatinine clearance test is performed both on a blood sample taken from the subject's vein and on a sample of urine collected over 24 hours. […] A normal creatinine level is less than 1, and normal CrCl levels are typically >100 mL/min. Dialysis is usually required when CrCl levels fall below about 20 mL/min.

For data set [2], the system named is patient with aseptic meningitis. In words: treatment of aseptic meningioencephalitis / aseptic meningitis. The data set is classed as in vivo, human. An excerpt:
The inventor thought that the cause of the AME was the patient's herpes infection that had spread internally to the brain and meninges. […] Because the product inserts for the anti-viral products on the market ([…]®) all warned against using increased doses of the product because of the fear of further renal damage, there was reason not to use increased doses beyond those of '114. […] A patient weighing about 100 kg having multiple signs or symptoms of autoimmune disease had been ingesting famciclovir for several years at about 10 g per day taken 4 times daily during a 24 hour period. While the subject's condition was tolerable, they were in a regular state of pain in the joints and had other signs or symptoms discussed below. They experienced significant headache pain, which was diagnosed as aseptic meningitis, which was discovered to be treatable initially using 340 mg of famciclovir per kg body weight. […] The inflammation and pain are therefore thought to be caused by the immune attack on the infected tissues. Within hours of taking the high doses of famciclovir, the patient experienced at least 60% relief of the extremely painful and debilitating symptoms of meningitis. […] The Shalabi, et al. report is discouraging. According to the authors, the disease is self-resolving. Without a double-blind study, it was not possible to detect the contribution of acyclovir to the recovery.

In data set [3] the test system is patient lung function. The experiment in a line: lung function by blood oxygenation (pulse oximetry). The data set is classed as in vivo, human. The source says:
Still another example of improvement that the inventor has discovered is improved pulmonary function. […] The pulmonary function was increased to 96% SATS by using the very high dose treatment of this invention. […] Thus the method of this invention can treat and reverse pulmonary hypertension and pulmonary fibrosis. […] Improvements of this kind in this range with this kind of patient (no known existing lung disease) are unusual. Thus, another aspect of this invention is a method to improve pulmonary function by administering a compound in accordance with the teachings herein. Treatments which cause similar improvements in patients with lung disease are direct acting relaxants upon the muscles of the vessels and the airways of the lung. The compounds of this invention have no such direct effect, and can only relax these critical lung muscles by suppressing the herpetically-induced “hypertonus” or resting tone of these muscles which was elevated above normal tone by the herpetic activity in the cells of the sympathetic chain which control these muscles.
An improvement in lung function was seen, possibly via relief of pulmonary hypertension, while taking famciclovir at 300 mg/kg per day. […] The patient's oxyhemoglobin increased from 92% to 96%. This small improvement is significant for this parameter in the 90%-100% range. […]

Data set [4] deals with patient with fibromyalgia. In words: fibromyalgia pain. In kind it is in vivo, human. The settings on record: 300 mg/kg per day. The protocol:
Yet another effect was alleviation of fibromyalgia: The pain was reduced by about 95% at 300 mg/kg of famciclovir per day.

Data set [5] deals with patient with cranial nerve palsy. In words: cranial nerve palsy (loss of control of soft palate) and loss of sympathetic nerve function. In kind it is in vivo, human. An excerpt: The loss of sympathetic nerve functions, can occur with a loss of control of some function of some autonomic muscles, or loss of sensation or both. This is not as common as 1 through 6, above. And, the effects are usually not as severe. One example is the loss of control of the soft palate, either partial or complete which can cause severe snoring, and is part of the sleep apnea syndrome, and also can cause a snorting sound when talking or laughing, or can cause food to get caught under the soft palate. Another condition is cranial nerve palsies as discussed in the Sixteenth Edition of the Merck Manual at page 2395. […] This new treatment effectively suppresses all of these conditions, and in at least one patient return of most lost function of the soft palate has occurred. In another there was significant return of anal sphincter tone with these doses which had been previously lost on the doses of '114.
A patient was experiencing the loss of control of the soft palate because it could not properly contract, a condition known as cranial nerve palsy. The condition causes snorting during talking and difficulty swallowing food. The food often lodges above the soft palate. These symptoms were 80% eliminated at 300 mg/kg of famciclovir per day.

Data set [6] deals with patient with nutcracker esophagus. The experiment in a line: nutcracker esophagus spasms. The conditions noted are these: 300 mg/kg per day. The data set is classed as in vivo, human. An excerpt:
Another condition experienced by the patient related to muscle spasms referred to as the “nutcracker esophagus.” This condition involves very painful spasms of the esophagus caused by food touching the hypersensitive “trigger points” inside the esophagus. These spasms can persist from minutes to hours. […] The condition recurs within a few hours when the drug is stopped.

The test system of data set [7] is patient with nose and brow acne and rosacea. In words: acne and rosacea. In kind it is in vivo, human. The conditions noted are these: 300 mg/kg per day. Here is the method: Additional symptoms relieved by the high doses of anti-herpes drugs involve severe nose and brow acne and rosacea on the chin and lower cheeks. Although the mechanism for these conditions is not understood, they are believed to be of autoimmune origin. Both skin conditions disappeared at 300 mg/kg of famciclovir per day and recurred when the drug was stopped.

For data set [8] the following is noted: body pH of 7.4; cited from earlier work.
Data set [9] has as its system patient with reduced renal function. The conditions noted are these: on the doses of '114 (maximum 120 mg/kg/day); improved from 29 mL/min; cited from earlier work.

Take `CC(=O)OCC(CCn1cnc2cnc(N)nc21)COC(C)=O` [famciclovir, 2-amino-9-(4-acetoxy-3-acetoxymethylbut-1-yl)purine]: the creatinine clearance level in data set [1] (dose increased from '114 level to levels of this application, from 89 mL/min, 100 kg man) was 143 mL/min; in [9] it was 89 mL/min. Further, in [1] (more than 250 mg/kg of body weight per day), the impaired kidney function entry is recorded as “significant improvement”. Further, the “unremitting severe symptoms of aseptic meningitis” value in [2] (340 mg/kg per day, maintained at 300 mg/kg/day) was “quickly dispersed”. For the same molecule, the “relief of symptoms of meningitis” value in [2] (340 mg/kg, within hours of taking) is on record as “at least 60%”. The “treating the AME” value in data set [2] (maximum dose of 120 mg/kg body weight as taught in '114) is “ineffective”. Further, in data set [2] (more than 250, e.g. 340 to 400 mg/kg/day), the “acute pain and the AME” value is given as “completely stopped”. Moreover, the “pulse O2 (oxyhemoglobin)” value in data set [3] (after six months of 300 mg/kg per day, from 92%) is 96%; in data set [3] (several years taking about 100 mg/kg), 92%. Besides, the fibromyalgia pain reduced entry in data set [4] is on record as “about 95%”. Besides, the “soft palate muscle strength” value in [5] (300 mg/kg daily, over a six-month period) is listed as “gradually returned”. In data set [5] (300 mg/kg per day), the “cranial nerve palsy symptoms eliminated” value was 80%. The nutcracker esophagus condition result in data set [6] is “completely relieved and prevented”. Also, the “skin conditions (acne, rosacea)” value in [7] is recorded as “disappeared”. Further, the “water solubility compared with other representative compounds such as acyclovir” value in data set [8] is recorded as “more water soluble”.
